Measured values: US20200131196A1 (Mount Tam Therapeutics, Inc., priority 2017, published 2020)
Read-outs that look alike come from different tables or passages of the source.

How the values were obtained:
[1] = Whole blood concentrations in mice after IP dosing (LC-MS/MS); type: in vivo, mouse; details: mouse, whole blood, intraperitoneal
Method: Shown below are whole blood concentrations following administration of the compound of Formula II to mice. The compound of Formula II was administered to mice at 2 mg/kg or 10 mg/kg and the concentration of the compound in whole blood determined. These determinations were made using protein precipitation, liquid chromatography (LC), and mass spectrometry (MS/MS). Ten μl aliquots of whole blood and matrix calibration standards were distributed in a 96-well plate; 10 μl aliquots of blank matrix for matrix blanks and control blanks were included as controls. Ten μl of water was added to each sample followed by vortexing. One hundred sixty […] of internal standard was added to each sample except the matrix blanks; 160 μl 70:30 water:acetonitrile (ACN) was added to matrix blanks. This was followed by a […]. One hundred fifty μl of the resultant supernatant was then transferred to a new 96-well plate and the samples blown to dryness at 35° C. The resultant product was then reconstituted with 90 μl ACN.

TORC1 = molecular target: T1, TORC1 (Homo sapiens, UniProt P42345+P62942); assay: TORC1 inhibition in PC3 cells (Western blot, phospho-rpS6); type: cell-based
T1 construct: endogenous in cells; host or cells: PC3 cells
Method: (§1) Equal amounts of protein were resolved by SDS-PAGE and transferred to nitrocellulose membrane using the Invitrogen Nu-Page system. […] The following day, blots were washed 3 times in TBST, incubated for 2 hr with secondary antibodies (donkey anti rabbit hrp conjugated), and finally washed an additional 3 times in TBST. ECL Prime (Amersham) was used to detect the proteins of interest and ImageJ was used to quantify blots.

TORC2 = molecular target: T2, TORC2 (Homo sapiens, UniProt P42345+P62942); assay: TORC2 inhibition in PC3 cells (Western blot, phospho Akt (S473)); type: cell-based
T2 construct: endogenous in cells; host or cells: PC3 cells
T2 sequence (P62942 2-108 limits assumed, other chains not shown): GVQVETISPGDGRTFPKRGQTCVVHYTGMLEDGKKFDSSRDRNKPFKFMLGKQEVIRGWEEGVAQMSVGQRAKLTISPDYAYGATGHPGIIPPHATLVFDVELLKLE
Method: as §1

[2] = Pharmacokinetics in male Sprague Dawley rats (intravenous and oral); type: in vivo, rat; details: for bioavailability: male, Sprague Dawley, po, 10 mg/kg; for AUC: read-out: AUC 0-infinity_observed
Method: Table 6 provides the pharmacokinetic parameters of Example (I) in male Sprague Dawley rats after a single bolus intravenous dose of 2 mg/kg. Table 7 provides the pharmacokinetic parameters of Example I in male Sprague Dawley rats after a single bolus oral dose of 10 mg/kg. In order to measure bioavailability in vivo, a compound may be administered to a test animal (e.g. mouse or rat) both intraperitoneally (i.p.) or intravenously (i.v.) and orally (p.o.) and blood samples are taken at regular intervals to examine how the plasma concentration of the drug varies over time. The time course of plasma concentration over time can be used to calculate the absolute bioavailability of the compound as a percentage using standard models. An example of a typical protocol is described below. […] The time-course of plasma or whole blood concentrations can then be used to derive key parameters such as the area under the plasma or blood concentration-time curve (AUC-which is directly proportional to the total amount of unchanged drug that reaches the systemic circulation), the maximum (peak) plasma or blood drug concentration, the time at which maximum plasma or blood drug concentration occurs (peak time), additional factors which are used in the accurate determination of bioavailability include: the compound's terminal half-life, total body clearance, steady-state volume of distribution and F %. These parameters are then analyzed by non-compartmental or compartmental methods to give a calculated percentage bioavailability, for an example of this type of method see Gallant-[…] et al, 2000 and […] et al, 1998, and references therein.

SK-UT-1 = assay: OncoPanel cell proliferation assay, SK-UT-1
Method: Cells were seeded into 384-well plates and incubated in a humidified atmosphere of 5% CO2 at 37° C. Compounds were added the day following cell seeding. At the same time, a time zero untreated cell plate was generated. After a 3-day incubation period, cells were fixed and stained to allow fluorescence imaging of nuclei. Compounds (1 mM stock solutions) were serially diluted in half-log steps from the highest test concentration (1 micromol), and assayed over 10 concentrations with a maximum assay concentration of 0.1% DMSO. Automated fluorescence microscopy was carried out using a Molecular Devices ImageXpress Micro XL high-content imager, and images were collected with a 4× objective. 16-bit TIFF images were acquired and analyzed with MetaXpress 5.1.0.41 software.
Cell proliferation was measured by the fluorescence intensity of an incorporated nuclear dye. The output is referred to as the relative cell count, where the measured nuclear intensity is transformed to percent of control (POC) using the following formula:
Cellular response parameters were calculated using nonlinear regression to a sigmoidal single-site dose response model:
GI50 is the concentration needed to reduce the observed growth by half (midway between the curve maximum and the time zero value). […] In rare instances, values <0 or >10 may be observed. […] Curve-fitting, calculations, and report generation was performed using a custom data reduction engine and MathIQ based software (AIM).

[3] = male Sprague Dawley rats, single bolus intravenous dose of 2 mg/kg
[4] = male Sprague Dawley rats, single bolus oral dose of 10 mg/kg
[5] = rat, blood, male Sprague Dawley rats, single bolus intravenous dose of 2 mg/kg
[6] = rat, blood, male Sprague Dawley rats, single bolus oral dose of 10 mg/kg

CO[C@H]1C[C@@H]2CC[C@@H](C)[C@@](O)(O2)C(=O)C(=O)N2CCCC[C@H]2C(=O)O[C@H]([C@H](C)C[C@H]2C[C@H]3C[C@@H]2C[C@@H]3O)CC(=O)[C@H](C)/C=C(\C)[C@@H](O)[C@@H](OC)C(=O)[C@H](C)C[C@H](C)/C=C/C=C/C=C/1C [Formula II, C37-[(1R,2S,4R,5S)-5-hyhroxybicyclo[2.2.1]heptane] rapamycin]
concentration at 2 h ([1]; 2 mg/kg, 2 mg/kg IP QD × 3 days, Day 2, 2.00 hrs, read-out: Formula II Concentrations in Mouse Whole Blood, Mean): 435 ng/mL | concentration at 6 h ([1]; 2 mg/kg, 2 mg/kg IP QD × 3 days, Day 2, animals 7, 8, 9, read-out: Formula II Concentrations in Mouse Whole Blood, individual animals): 553 ng/mL | concentration at 6 h ([1]; 2 mg/kg, 2 mg/kg IP QD × 3 days, Day 2, read-out: Formula II Concentrations in Mouse Whole Blood, Mean): 579 ng/mL | concentration at 24 h ([1]; 2 mg/kg, 2 mg/kg IP QD × 3 days, Day 2, 24.0 hrs, read-out: Formula II Concentrations in Mouse Whole Blood, Mean): 43.7 ng/mL | concentration at 1 h ([1]; 2 mg/kg, 2 mg/kg IP QD × 3 days, Day 3, 1.00 hrs, animals 7, 8, 9, read-out: Formula II Concentrations in Mouse Whole Blood, individual animals): 628 ng/mL | concentration at 24 h ([1]; 2 mg/kg, about 2 mg/kg, at about 24 hours following administration, read-out: approximate mean concentration in whole blood): 15 to 43.7 ng/mL | concentration at 24 h ([1]; 10 mg/kg, about 10 mg/kg, at about 24 hours following administration, read-out: approximate mean concentration in whole blood): 21 to 138 ng/mL | TORC1/TORC2 Selectivity (TORC1): 50x | selectivity of mTORC1 vs mTORC2 inhibition compared with the polyketide disclosed in U.S. Pat. No. 9,382,266 (in words) (TORC1): less selectively | IC50 (TORC1; Western blot): 0.099 nM | IC50 (TORC2): 5 nM | AUMC 0-inf_observed [2, 3]: 2358 ng/ml*h^2 | Cl_obs [2, 3]: 0.0026 (mg/kg)/(ng/ml)/h | Lambda_z [2, 3]: 0.270 h⁻¹ | Vss_obs [2, 3]: 0.00797 (mg/kg)/(ng/ml) | Vz_obs [2, 3]: 0.00963 (mg/kg)/(ng/ml) | AUMC 0-inf_obs [2, 4]: 13410 ng/ml*h^2 | Cl/F_obs [2, 4]: 0.0055 (mg/kg)/(ng/ml)/h | Lambda_z [2, 4]: 0.127 h⁻¹ | Tlag [2, 4]: 0 h | Vz/F_obs [2, 4]: 0.0433 (mg/kg)/(ng/ml) | bioavailability ([2]; rat, blood, male Sprague Dawley rats, single bolus oral dose of 10 mg/kg, read-out: % F): 47% | bioavailability ([2]; rat, blood, read-out: oral bioavailability): ~47% | AUC(0-t) [2, 5]: 694 ng·h/mL | C0 [2, 5]: 1560 ng/mL | half-life [2, 5]: 2.57 h | AUC [2, 5]: 769 ng·h/mL | Cmax ([2]; rat, blood, male Sprague Dawley rats, single bolus intravenous dose of 2 mg/kg, read-out: Cmax (maximum blood concentration)): 912 ng/mL | MRT ([2]; rat, blood, male Sprague Dawley rats, single bolus intravenous dose of 2 mg/kg, read-out: MRT 0-infinity_observed): 3.06 h | Tmax ([2]; rat, blood, male Sprague Dawley rats, single bolus intravenous dose of 2 mg/kg, read-out: Tmax (time maximum blood conc.)): 0.0333 h | AUC(0-t) [2, 6]: 1720 ng·h/mL | half-life [2, 6]: 5.46 h | AUC [2, 6]: 1820 ng·h/mL | Cmax ([2]; rat, blood, male Sprague Dawley rats, single bolus oral dose of 10 mg/kg, read-out: Cmax): 206 ng/mL | MRT inf ([2]; rat, blood, male Sprague Dawley rats, single bolus oral dose of 10 mg/kg, read-out: MRT 0-inf_obs): 7.37 h | Tmax ([2]; rat, blood, male Sprague Dawley rats, single bolus oral dose of 10 mg/kg, read-out: Tmax): 2 h | EC50 (SK-UT-1; Homo sapiens, SK-UT-1, read-out: Cell Count EC50): 1.51 nM | GI50 (SK-UT-1; Homo sapiens, SK-UT-1, read-out: Cell Count GI50): 11.3 nM | IC50 (SK-UT-1; Homo sapiens, SK-UT-1, read-out: Cell Count IC50): 38.2 nM | Cell Count Activity Area (SK-UT-1; SK-UT-1): 3.48 | Relative cell count (%) Mean (SK-UT-1; SK-UT-1, 1.00E+00 microM): 47.0% | Relative cell count (%) Mean (SK-UT-1; SK-UT-1, 1.00E-01 microM): 59.0% | Relative cell count (%) Mean (SK-UT-1; SK-UT-1, 1.00E-02 microM): 76.1% | Relative cell count (%) Mean (SK-UT-1; SK-UT-1, 1.00E-03 microM): 82.8% | Relative cell count (%) Mean (SK-UT-1; SK-UT-1, 1.01E-04 microM): 114.4% | Relative cell count (%) Mean (SK-UT-1; SK-UT-1, 3.16E-01 microM): 53.3% | Relative cell count (%) Mean (SK-UT-1; SK-UT-1, 3.17E-02 microM): 61.4% | Relative cell count (%) Mean (SK-UT-1; SK-UT-1, 3.17E-03 microM): 75.4% | Relative cell count (%) Mean (SK-UT-1; SK-UT-1, 3.18E-04 microM): 96.2% | Relative cell count (%) Mean (SK-UT-1; SK-UT-1, 3.18E-05 microM): 116.9%
